Literature values as cited in patent publication US20090270472A1, “METHOD TO USE OXYMETAZOLINE TO INTERRUPT THE DEVELOPMENT OF THE COMMON COLD SYNDROME” (priority 2008, published 2009).

Conditions: subjects with acute rhinitis; six (6) days with saline placebo

In the case of Cc1cc(C(C)(C)C)c(O)c(C)c1CC1=NCCN1 [oxymetazoline], the duration of rhinitis is given as 4 days.
